Assay results reported in patent publication US12552806B2, “Androgen receptor regulation by small molecule enantiomers” (University of Southern California, priority 2020, dated 2026).
“Also recorded” adds a separate entry of the source.

Tests used:
AR = experiment: ARE-luciferase assay in cells expressing ARE-luciferase (enantiomer pairs); assay type: cell-based; conditions: 10 μM mixture + 1 nM R1881, 24 h
Description: (§1) To test for corresponding transcriptional activation, we performed assays in cells expressing ARE-luciferase. […] Next, we examined gene expression in VCaP cells, a hormone-responsive but independent model of CRPC highly expressing AR.
(§2) PC3 and VCaP cell lines were obtained from ATCC and cultured as recommended. Generation and culture of PC3 GFP-AR cells were described previously (14). ARE-luciferase cells were generated using Cignal Lenti AR Reporter (Qiagen). Cell lines were authenticated using NIST-approved short tandem repeat DNA profiling and tested negative for mycoplasma. Drug treatments were conducted after overnight culture in phenol red-free media supplemented with charcoal:dextran stripped FBS.
(§3) Luminometer Assays. For ARE-luciferase, luciferase substrate was added to lysed cells after 24-h treatment. For viability, cells were lysed with CellTiter-Glo 3D Cell Viability Assay (Promega) after 6 d of treatment. Measurements were performed in 96-well plates (Corning) using a GloMax 96 Microplate Luminometer (Promega).

[1] = tested on: AR-regulated genes in VCaP cells; experiment: RT-qPCR array of AR target genes in VCaP cells; assay type: cell-based; conditions: 82 AR target genes, vs NTC and DHT
Experimental: as §1
RT-qPCR Array. RNA was isolated using the Illustra RNAspin Mini Kit (GE Healthcare). RNA was transcribed to cDNA using RT2 First Strand Kit (Qiagen). RT-qPCR was performed using Biorad CFX Connect on a RT2 Profiler PCR Array Human Androgen Receptor Signaling Targets (Qiagen).

[2] = Microsome stability assay; assay type: in vitro ADME, human; conditions: for toxic metabolite BMS-501949 detected in LCMS: 8 h incubation, o-fluoro-BMS-501949 for EITM-1707
Experimental: Microsome stability assays. In vitro metabolism was determined as described previously. Specifically, to measure metabolism of parent compounds, the higher throughput protocol was applied, in which 0.5 mg/ml pooled human liver microsomes (Sigma) were mixed with 1 μM drugs and phosphate buffer (0.1 M, pH 7.4) in 96-well plates. Enzymatic reactions were started by adding 1 mM NADPH (Sigma Aldrich) followed by incubation at 37° C. Fractions were quenched by transfer to ice-cold acetonitrile after the indicated incubation times. Samples were analyzed using liquid chromatography-mass spectrometry (LC/MS-MS). Rates of intrinsic clearance were determined from the amount of the parent compound consumed per min per mg of microsomal protein as described previously. To analyze accumulating metabolites, the basic protocol was used, and microsomes were incubated with 10 μM drugs for 8 h.

AR T878A = biological target: T1, AR T878A (Homo sapiens, UniProt P10275, T878A); experiment: cell-based; assay type: cell-based
T1 construct: LNCaP cells expressing AR T878A; endogenous in cells; host or cells: LNCaP-luc (LNCaP stably carrying the Cignal Lenti AR Reporter)
T1 sequence (P10275 1-920 T878A): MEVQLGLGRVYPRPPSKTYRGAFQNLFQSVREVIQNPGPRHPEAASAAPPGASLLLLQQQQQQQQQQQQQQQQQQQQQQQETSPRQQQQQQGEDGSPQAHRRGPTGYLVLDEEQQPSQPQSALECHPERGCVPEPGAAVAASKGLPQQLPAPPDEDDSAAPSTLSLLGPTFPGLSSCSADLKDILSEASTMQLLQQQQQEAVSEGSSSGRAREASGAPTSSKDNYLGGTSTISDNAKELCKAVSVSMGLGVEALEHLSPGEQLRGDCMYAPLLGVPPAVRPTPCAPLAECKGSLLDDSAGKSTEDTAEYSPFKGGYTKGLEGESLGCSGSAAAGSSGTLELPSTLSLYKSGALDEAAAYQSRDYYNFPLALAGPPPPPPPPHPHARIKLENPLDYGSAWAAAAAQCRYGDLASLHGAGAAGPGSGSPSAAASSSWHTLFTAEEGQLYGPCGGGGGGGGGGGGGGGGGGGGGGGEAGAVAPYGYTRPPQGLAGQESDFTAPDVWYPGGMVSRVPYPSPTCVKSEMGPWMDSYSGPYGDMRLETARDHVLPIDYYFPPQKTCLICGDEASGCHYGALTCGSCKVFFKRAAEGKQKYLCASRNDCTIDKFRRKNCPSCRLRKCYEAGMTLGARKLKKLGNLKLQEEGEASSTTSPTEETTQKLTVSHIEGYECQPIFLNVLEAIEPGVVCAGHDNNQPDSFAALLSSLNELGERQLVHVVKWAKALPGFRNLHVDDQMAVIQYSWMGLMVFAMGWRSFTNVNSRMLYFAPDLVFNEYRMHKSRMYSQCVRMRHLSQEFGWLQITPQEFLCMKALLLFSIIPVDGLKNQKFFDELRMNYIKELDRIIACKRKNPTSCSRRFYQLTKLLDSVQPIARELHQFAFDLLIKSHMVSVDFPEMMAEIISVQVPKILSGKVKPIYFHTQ
Description: We generated a LNCaP cell line stably expressing luciferase controlled by androgen response elements (ARE-luciferase).
Cell Culture and Treatments. The LNCaP cell line were obtained from ATCC, cultured in RPMI1640 (Corning) supplemented with 10% heat-inactivated GemCell bovine serum (Gemini Bio-Products) and Penicillin-Streptomycin (Gemini Bio-Products). Cell lines stably expressing ARE-luciferase (LNCaP-luc) was generated using Cignal Lenti AR Reporter (Qiagen) and was continuously cultured with 500 ng/mL Puromycin (Gibco) for positive selection. Cells were maintained at 37° C. in a humidified incubator with 5% carbon dioxide. All cell lines were authenticated using NIST approved short tandem repeat (STR) DNA profiling performed by the University of Arizona Genetics Core and routinely tested negative for mycoplasma.
Luciferase assay. LNCaP-luc cells were seeded in clear flat bottom white polystyrene 96-well plates (Corning) at a density of 12,000 cells/well. […] Dose-response curves were fit using the delta method and t-distribution (n=1). Compounds are tested up to 10 μM.

VCaP cells = experiment: VCaP viability assay (CellTiter-Glo); assay type: cell-based
Experimental: as §2, §3

LNCaP cells = experiment: LNCaP cell viability assay (CellTiter-Glo); assay type: cell-based; conditions: 1 and 10 μM drug + 60 pM R1881, 5 days
Experimental: LNCaP cell viability assay. Cells were seeded into 96-well fibronectin coated (1 ug/cm^2) plates (CellCarrier, PerkinElmer) at a density of 5,000 cells/well. […] Drug-treated cells were lysed with CellTiter-Glo 3D Cell Viability Assay (Promega) and transferred to white 96-well plates (Corning). Luminescence was measured utilizing GloMax 96 Microplate Luminometer (Promega). Analysis was conducted in the R statistical environment (v 3.6.0). […] Visualizations were facilitated by the ggplot2 package (v3.2.1), with standard error (S.E.) shown where appropriate.

| SMILES | (S)-enantiomer contamination that halved the drug effect, ARE-luciferase (AR; 95% CI (2.1%, 2.9%)) [%] | (S)-enantiomer contamination that canceled out the antagonist effect, ARE-luciferase (AR; 95% CI (6.0%, 12.0%)) [%] | AR-dependent gene expression, in words [1] | toxic metabolite BMS-501949 detected in LCMS ([2]; 10 μM drug) | toxic metabolite BMS-501949 detected in LCMS ([2]; 10 μM drug, listed as (R)-EITM-1707) | active metabolite detected in LCMS ([2]; Unnamed metabolite (predicted active) for EITM compounds, BMS-570511 for BMS-641988, 10 μM drug, 8 h) | half-life at 1 μM ([2]; human, pooled human liver microsomes, pH 7.4, liver microsomes, 1 μM drug, read-out: T½) [min] | microsomal CLint at 1 μM ([2]; human, pooled human liver microsomes, pH 7.4, liver microsomes, read-out: rate of intrinsic clearance) [µL/min/mg] | AR agonism / antagonism in LNCaP ARE-luciferase, in words (AR T878A) | EC50 (AR T878A) [nM] | Emax (AR T878A; LNCaP) [%] | R1881-induced growth, in words (VCaP cells; 10 μM drug + 1 nM R1881, 6-d treatment) | IC50 (VCaP cells; Homo sapiens, VCaP) [nM] | LNCaP proliferation / viable cells, in words (LNCaP cells) |
| --- | --- | --- | --- | --- | --- | --- | --- | --- | --- | --- | --- | --- | --- | --- |
| C[C@@]12O[C@@](C)(C[C@@H]1NC(=O)c1cc[nH]n1)[C@@H]1C(=O)N(c3ccc(C#N)c(C(F)(F)F)c3)C(=O)[C@@H]12 [(S)-EITM-1702, N-((3aS,4S,5S,7S,7aR)-2-(4-cyano-3-(trifluoromethyl)phenyl)-4,7-dimethyl-1,3-dioxooctahydro-1H-4,7-epoxyisoindol-5-yl)-1H-pyrazole-3-carboxamide] | 2.5 | 9 |  |  |  |  |  |  |  |  |  |  |  |  |
| CC(O)c1cc(C(=O)N[C@@H]2C[C@@]3(C)O[C@]2(C)[C@@H]2C(=O)N(c4ccc(C#N)c(C(F)(F)F)c4F)C(=O)[C@@H]23)n[nH]1 (stereo partly drawn) [EITM-1707, N-((3aR,4R,5R,7R,7aS)-2-(4-cyano-2-fluoro-3-(trifluoromethyl)phenyl)-4,7-dimethyl-1,3-dioxooctahydro-1H-4,7-epoxyisoindol-5-yl)-5-(1-hydroxyethyl)-1H-pyrazole carboxamide] |  |  | down-regulated AR-dependent gene expression | not detected | no | yes | 47.3 | 10.3 | pure antagonists | 940 | 13 | visibly suppressed R1881-induced growth | 410 | inhibit LNCaP proliferation; also recorded: inhibited the growth of LNCaP prostate cancer cells |
